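96-well plates; 48 h exposure; 5 concentrations. Endpoints by linear interpolation between flanking doses. Not reached: highest tested concentration assigned. GI50 marks 50% less growth.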 Active and inactive are the calls of the source. No stated cut-off is given here; in the data, active = GI50 up to about 1.1 µM and inactive = higher.
Experiments:
Assay in all cases: NCI-60 cell line screen, 48 h
EKVX = system: EKVX
BT-549 = system: BT-549
MCF7 = system: MCF7
HOP-92 = system: HOP-92
COLO 205 = system: COLO 205
CCRF-CEM = system: CCRF-CEM
A549 = system: A549
SF-295 = system: SF-295
LOX IMVI = system: LOX IMVI
SW-620 = system: SW-620
UACC-62 = system: UACC-62
SF-539 = system: SF-539
Malme-3M = system: Malme-3M
MDA-MB-231 = system: MDA-MB-231
CAKI-1 = system: CAKI-1
SNB-19 = system: SNB-19
SNB-75 = system: SNB-75
HT-29 = system: HT-29
OVCAR-4 = system: OVCAR-4
A498 = system: A498

Measured: GI50

CN(/N=C/C=N/N(C)C1=NCCCN1)C1=NCCCN1
inactive: EKVX > 100 µM | BT-549 > 100 µM | MCF7 > 100 µM | HOP-92 > 100 µM | COLO 205 > 100 µM | CCRF-CEM > 100 µM | A549 > 100 µM | SF-295 > 100 µM | LOX IMVI > 100 µM | SW-620 > 100 µM | UACC-62 > 100 µM | SF-539 > 100 µM | Malme-3M > 100 µM | MDA-MB-231 > 100 µM | CAKI-1 > 100 µM | SNB-19 > 100 µM | SNB-75 > 100 µM | HT-29 > 100 µM | OVCAR-4 > 100 µM

CN(C)P(=O)(Oc1occc1C(O)Cc1ccccc1)N(C)C (stereo unspecified)
inactive: EKVX > 100 µM | BT-549 > 100 µM | MCF7 > 100 µM | COLO 205 > 100 µM | A498 > 100 µM | CCRF-CEM > 100 µM | A549 > 100 µM | SF-295 > 100 µM | LOX IMVI > 100 µM | SW-620 > 100 µM | SF-539 > 100 µM | Malme-3M > 100 µM | MDA-MB-231 > 100 µM | CAKI-1 > 100 µM | SNB-19 > 100 µM | SNB-75 > 100 µM | OVCAR-4 > 100 µM

COc1cc(C2SC(C)C(=O)N2c2ccc(-c3csc(NS(=O)(=O)c4ccc(Cl)c(OC)c4)n3)cc2)ccc1O (stereo unspecified)
inactive: MCF7 38.4 µM | HOP-92 24.4 µM | COLO 205 > 100 µM | A498 > 100 µM | CCRF-CEM 14.6 µM | A549 > 100 µM | SF-295 > 100 µM | LOX IMVI 31.3 µM | SW-620 31.8 µM | UACC-62 25.4 µM | SF-539 32.7 µM | Malme-3M 27.8 µM | MDA-MB-231 > 100 µM | CAKI-1 > 100 µM | SNB-19 > 100 µM | SNB-75 19.7 µM | HT-29 > 100 µM | OVCAR-4 26.3 µM

COc1ccc2c(c1)-c1c(c3ccccc3n1CCN1CCOCC1)CC2
inactive: EKVX 16.4 µM | BT-549 23 µM | MCF7 32.3 µM | HOP-92 36.6 µM | COLO 205 16 µM | CCRF-CEM 22.4 µM | A549 27.1 µM | SF-295 16 µM | LOX IMVI 16.6 µM | SW-620 32.1 µM | UACC-62 18.8 µM | SF-539 25 µM | Malme-3M 14.6 µM | MDA-MB-231 18.9 µM | CAKI-1 17.5 µM | SNB-19 21 µM | SNB-75 10.8 µM | HT-29 13.1 µM | OVCAR-4 56.6 µM

N=c1c2ccccc2nc2oc3ccccc3n12
inactive: EKVX 1.91 µM | BT-549 51.2 µM | MCF7 45.1 µM | HOP-92 26.5 µM | COLO 205 > 100 µM | A498 38.7 µM | CCRF-CEM 55 µM | A549 33.8 µM | SF-295 > 100 µM | LOX IMVI 53.8 µM | SW-620 93.5 µM | UACC-62 28.6 µM | SF-539 37.2 µM | Malme-3M 41.1 µM | CAKI-1 44.4 µM | SNB-19 25.5 µM | HT-29 > 100 µM | OVCAR-4 29 µM

O=P(O)(O)C(N=C(Nc1ccccc1)Nc1ccccc1)P(=O)(O)O
inactive: EKVX > 100 µM | BT-549 > 100 µM | MCF7 > 100 µM | COLO 205 > 100 µM | A549 > 100 µM | SF-295 > 100 µM | LOX IMVI > 100 µM | UACC-62 > 100 µM | SF-539 > 100 µM | Malme-3M > 100 µM | MDA-MB-231 > 100 µM | CAKI-1 > 100 µM | SNB-19 > 100 µM | HT-29 > 100 µM

COC(=O)c1ccccc1C1CN=NC12Cc1ccccc1C2=O (stereo unspecified)
inactive: EKVX 42.5 µM | BT-549 49.2 µM | MCF7 > 100 µM | HOP-92 34 µM | COLO 205 > 100 µM | CCRF-CEM > 100 µM | A549 > 100 µM | SF-295 > 100 µM | LOX IMVI 45.4 µM | SW-620 > 100 µM | UACC-62 42.1 µM | SF-539 > 100 µM | Malme-3M 74.5 µM | MDA-MB-231 78 µM | CAKI-1 > 100 µM | SNB-19 > 100 µM | SNB-75 43.6 µM | HT-29 > 100 µM | OVCAR-4 52.4 µM

OCC1C(O)C(O)[C@@H]2SCCN12 (stereo partly specified)
inactive: EKVX > 100 µM | BT-549 > 100 µM | HOP-92 > 100 µM | COLO 205 > 100 µM | A498 > 100 µM | CCRF-CEM > 100 µM | A549 > 100 µM | SF-295 > 100 µM | LOX IMVI > 100 µM | SW-620 > 100 µM | UACC-62 > 100 µM | Malme-3M > 100 µM | MDA-MB-231 > 100 µM | CAKI-1 > 100 µM | SNB-19 > 100 µM | SNB-75 > 100 µM | HT-29 > 100 µM | OVCAR-4 > 100 µM

COc1ccc2c3c1O[C@H]1C(OC)C=CC4C(C2)N(Cc2cccs2)CCC341 (stereo partly specified)
inactive: EKVX 88.3 µM | BT-549 40.1 µM | HOP-92 > 100 µM | CCRF-CEM 49.7 µM | A549 53.8 µM | SF-295 61 µM | LOX IMVI > 100 µM | SW-620 > 100 µM | UACC-62 > 10 µM | Malme-3M > 100 µM | CAKI-1 > 100 µM | SNB-19 > 100 µM | HT-29 69.7 µM

CC(=O)Nc1ccc(NC(=O)c2c(Cl)c(Cl)c(Cl)c(Cl)c2-c2nc3ccccc3[nH]2)cc1
inactive: EKVX 33.3 µM | BT-549 43.1 µM | MCF7 26.7 µM | HOP-92 15.7 µM | COLO 205 17.6 µM | A498 35 µM | CCRF-CEM 32.7 µM | A549 36.4 µM | SF-295 38.3 µM | SW-620 48.5 µM | UACC-62 27.8 µM | SF-539 38.5 µM | Malme-3M 51.4 µM | CAKI-1 38.7 µM | SNB-19 54.2 µM | SNB-75 73.3 µM | HT-29 35.7 µM | OVCAR-4 45.2 µM

Cc1ccc(Nc2c3c(c(C#N)c4nc5ccccc5n24)CCCC3)cc1
inactive: EKVX 17.3 µM | BT-549 35.8 µM | MCF7 9.89 µM | HOP-92 17.1 µM | COLO 205 18.3 µM | CCRF-CEM 6.05 µM | A549 12.5 µM | SF-295 13 µM | LOX IMVI 22.1 µM | SW-620 15.4 µM | UACC-62 14.7 µM | SF-539 19.4 µM | Malme-3M 30.7 µM | MDA-MB-231 22.5 µM | CAKI-1 25.4 µM | SNB-19 38.4 µM | HT-29 13.6 µM | OVCAR-4 20.7 µM

From ChEMBL document CHEMBL1201862, “PubChem BioAssay data set” (2004)
